{"source": "patent EP0370656A1", "about": "“Treatment of myelosuppression associated with acquired immune deficiency” (SCHERING CORPORATION, priority 1988, dated 1990)", "key": {"[1]": {"system": "cytomegalovirus retinitis", "conditions": "intravenous, 7.5 to 15 mg per kilogram per day; patients with cytomegalovirus retinitis; cited from earlier work"}, "[2]": {"system": "white blood cell (WBC) count", "conditions": "for WBC (per cm³): GM-CSF 0 µg/kg", "from_the_text": "A person was diagnosed as having AIDS and CMV retinitis. […]"}}, "note": "Read-outs that look alike come from different tables or passages of the source.", "data": [{"compound": "Nc1nc(O)c2ncn(COC(CO)CO)c2n1", "note": "[DHPG, 9-(1,3-dihydroxy-2-propoxymethyl) guanine]", "values": [{"measurement": "major adverse effect of DHPG therapy", "setting": "[1]", "value": "dose related myelosuppression, especially neutropenia"}, {"measurement": "WBC (per cm³)", "setting": "[2]; Example 1, person, Day 0, % dose of DHPG changed to 50", "value": 1000, "unit": "per cm³"}, {"measurement": "result of DHPG treatment (adverse effect)", "setting": "[2]; Example 1, DHPG commenced at Day 0", "value": "life threatening myelosuppression"}, {"measurement": "WBC (per cm³)", "setting": "[2]; Example 1, Day 29, % dose of DHPG changed to 50", "value": 700, "unit": "per cm³"}, {"measurement": "WBC (per cm³)", "setting": "[2]; Example 1, Day 34, % dose of DHPG changed to 0", "value": 300, "unit": "per cm³"}, {"measurement": "WBC (per cm³)", "setting": "[2]; Example 1, Day 49 (DHPG at 0 % since Day 34), % dose of DHPG changed to 100", "value": 1900, "unit": "per cm³"}, {"measurement": "WBC (per cm³)", "setting": "[2]; Example 1, Day 52, % dose of DHPG changed to 50", "value": 700, "unit": "per cm³"}]}]}
